Tests used:
large intestine = test: CT examination of the large intestine: evaluation of remaining feces, remaining water and overall evaluation after pretreatment; type: in vivo, human; conditions: conclusion from CT overall evaluation
Method: The large intestine is divided into 6 parts in order to evaluate remaining feces and remaining water in each part in five stages from an image of the large intestine at a supine position (SU) and a lateral recumbent position (PR) obtained from CT examination. Further, overall evaluation was carried out from the obtained evaluation results.
The large intestine is divided into the following six parts.
C: appendix A: ascending colon T: transverse colon D: descending colon S: sigmoid colon R: rectum
The remaining feces were evaluated in five stages according to the existence of movement and a shape change.
0: difficult to evaluate 1: sticks to a mucous membrane 2: no movement and no shape change 3: moved and changed in shape 4: almost no remaining feces
The remaining water was evaluated in the following five stages according to its proportion to the circumference.
0: 4/4 of the circumference is under water (complete submersion). 1: 3/4 of the circumference is under water 2: 2/4 of the circumference is under water 3: 1/4 of the circumference is under water (submersion of semilunar pleat) 4: almost no submersion
The overall evaluation was made in the following five stages.
0: not useful 1: it cannot be said whether it is useful or not 2: rather useful 3: useful 4: very useful
3 g of MgO for each examination was divided in two portions to be administered as the pretreatment of the examination. […]

rats [1] = test: Defecation state (soft stool) of rats 9 hours after administration; type: in vivo, rat; conditions: oral, after 9 hours, magnesium oxide 700 mg/kg, fiber powders 4500 mg/kg, fiber liquid 4500 mg/kg as administered
Method: (§1) Magnesium oxide particles and water-soluble dietary fibers were administered to rats for animal testing to check the defecation states after 9 hours. Laparotomy was made on the rats after 9 hours to measure the amount of remaining feces, the amount of dry feces and the content of water in the intestinal tract.
(§2) A preparation containing 1.4 g of magnesium oxide particles and 9 g of water-soluble dietary fiber powders was used to administer 700 mg/kg of the magnesium oxide particles and 4,500 mg/kg of the water-soluble dietary fiber powders to rats. The magnesium oxide in use was magnesium oxide particles having an average secondary particle diameter specified in the present invention. The water-soluble dietary fibers in use were reduced indigestible dextrin specified in the present invention.
The total suspension liquid doses to test groups were fixed. […] The defecation state was checked after 9 hours, and the amount of remaining feces, the amount of dry feces and the content of water in the large intestine of each rat were measured to evaluate the effects on the properties of feces of the magnesium oxide particles and the water-soluble dietary fibers.

rats [2] = test: Laparotomy of rats after 9 hours: remaining feces, dry feces and water content in the large intestinal tract; type: in vivo, rat
Method: as §1, §2
The total suspension liquid doses to test groups were fixed. When the magnesium oxide particles and a mixture of the magnesium oxide particles and the water-soluble dietary fiber powders were administered, 5 ml/kg of them was administered, and when they were not administered, 0.05% CMC-NA was administered. When the water-soluble dietary fiber liquid was administered, 10 ml/kg of it was administered and when the water-soluble dietary fiber liquid was not administered, 10 ml/kg of water was administered. The defecation state was checked after 9 hours, and the amount of remaining feces, the amount of dry feces and the content of water in the large intestine of each rat were measured to evaluate the effects on the properties of feces of the magnesium oxide particles and the water-soluble dietary fibers.

rats [3] = test: Defecation state (diarrhea) of rats after 9 hours with varied amount of ingested water; type: in vivo, rat; conditions: oral, magnesium oxide 700 mg/kg
Method: Magnesium oxide particles were administered to rats for animal testing to check the defecation states after 9 hours. At this point, the amount of water to be taken was increased and decreased to evaluate the effect on laxative action of the amount of water to be taken.
A preparation containing magnesium oxide as an effective component and crystalline cellulose, croscarmellose and calcium stearate as additives was used. […] The magnesium oxide in use is magnesium oxide particles having an average secondary particle diameter specified in the present invention.
The defecation state of each test group was checked after 9 hours so as to calculate the water-like feces excretion rate and evaluate the effect on the properties of feces of the amount of ingested water when the magnesium oxide particles were administered.

[4] = large intestinal tract after 9 hours, magnesium oxide 700 mg/kg, fiber powders 4500 mg/kg, fiber liquid 4500 mg/kg as administered

[O]=[Mg] [Magnesium oxide particles, magnesium oxide]
effectiveness as a treating agent for the examination or operation of the large intestine (in words) (large intestine): extremely effective
Proportion having soft stool (number of rats having soft stool/number of test rats) (rats [1]): 3/5
amount of dry feces (in words) (rats [2]; after 9 hours): reduced
content of water (in words) (rats [2]; after 9 hours): increased
Amount of dry feces (rats [2]; [4]): 12%
Amount of remaining feces (rats [2]; [4]): 3.69 g
Content of water (rats [2]; [4]): 88%
Proportion causing diarrhea (number of rats suffering from diarrhea/number of test rats) (rats [3]; water 1 mL/kg): 3/5
Proportion causing diarrhea (number of rats suffering from diarrhea/number of test rats) (rats [3]; water 10 mL/kg): 4/5
Proportion causing diarrhea (number of rats suffering from diarrhea/number of test rats) (rats [3]; water 35 mL/kg): 5/5

Reference: patent US20160279166A1, “TREATING AGENT AND TREATING METHOD FOR THE EXAMINATION OR OPERATION OF THE LARGE INTESTINE” (KYOWA CHEMICAL INDUSTRY CO., LTD., priority 2013, published 2016)
